Assay results from patent US7728043B2, “Methods for treatment of beta-amyloid protein-induced ocular disease” (priority 1999, dated 2010).
Entries after “also recorded” stand apart in the source; their conditions may differ.

Assays:
[1] = system: cells treated with βA peptide; assay: Protection of cells from βA peptide insult, statements in words (MTT assay, cells not singled out); assay type: cell-based; conditions: for Protection of cells from βA peptide-induced toxicity, in words: MTT reduction assay, PC12, IMR32, HUVEC cells where named in the sentence; for Microscopic analysis of βA peptide treated cells (MTT formazan granules in the cytosole): synthesized curcuminoid compounds, compared with positive and negative control
Protocol: (§1) The degree of βA insult was measured by 3-[4,5-dimethylthiazol-2-yl]-2,5-diphenyltetrazolium bromide (MTT) reduction assay. […] The detection of cell growth or cell death can be determined by observing the conversion of MTT to the colored product, MTT formazan, the concentration of which can be measured […] at 550 nm.
(§2) Cells were incubated in MTT solution (5 mg/ml) at 37° C. for 2 hours. During this time, cells were observed under a microscope every 15 min. Cells were incubated in Lysing buffer (100 μl) overnight at 37° C. Colorimetric determination of MTT reduction was made at 550 nm.

[2] = system: primary cortical rat neuronal cells; assay: Protection of primary cortical neuronal cells against βA peptide (1-42) insult; assay type: cell-based; conditions: compound at 5 μg/ml; βA peptide (1-42) 10 μg/ml
Protocol: as §2
Primary cortical rat neuronal cells were obtained in the following manner. Dissociated primary neuronal cell cultures were established from 18-day-old Sprague-Dawley rat fetuses. The pups were delivered by caesarean section while the dam was anesthetized with ether. Hippocampal tissue from embryonic day 18 Sprague-Dawley rat pups was dissected and then rinsed in cold Ca^2+/Mg^2+-free Hank's balanced salt solution supplemented with 20 mM HEPES, 4.2 mM sodium bicarbonate, 1 mM pyruvate, and 3 mg/ml bovine serum albumin (BSA). Following gentle trituration of the tissue with a constricted pipette in cold buffer, two volumes of 10% fetal bovine serum (FBS) in DMEM were added to the suspension. After the suspension settled for 2 minutes, the supernatant was collected and centrifuged for 2 min. at 200×g. The cell pellets were resuspended in serum-free DMEM (pH 7.3), supplemented with 2.4 mg/ml BSA and a modification of Brewer's […] defined components (with 250 nM vitamin B12 and without catalase, glutathione, and superoxide dismutase). Cells were plated at a density of 15,000 cells/cm^2 and grown at 37° C. After 24 hours of incubation to allow cell attachment, the serum-containing medium was replaced by defined medium with DMEM/F12 containing bovine transferrin (100 μg/ml), bovine insulin (5 μg/ml), putrescine (0.1 mM), progesterone (10 nM), sodium selenite (30 nM), sodium pyruvate (1 mM), and potassium bicarbonate (15 mM). Cells maintained for extended periods of time were fed twice a week by replacing ⅓ of the medium with fresh medium.

[3] = Antioxidant assay, scavenging of DPPH free radicals; conditions: for Antioxidant activity (DPPH free radical scavenging), in words: optical density change of DPPH radicals at 515 nm
Protocol: Kim et al., Neurosci Lett 303, 57 (2001) and Barik et al., Free Radic Biol Med 39, 811 (2005).
Using an antioxidant assay, the antioxidant potency of the compounds of the invention was evaluated. 1,1-Diphenyl-2-picrylhydrazyl (DPPH) is known to generate stable free radicals in aqueous and ethanolic solutions. The ability of the compounds of the invention to scavenge these free radicals was measured by observing the optical density change of DPPH radicals at 515 nm. Kim et al., Neurosci Lett 303, 57 (2001) and Barik et al., Free Radic Biol Med 39, 811 (2005).
The samples were prepared in various concentrations (200, 20, 2.0, and 0.2 μg/ml) by serial dilution of a stock solution (5 mg/ml) and were tested by the following procedure. Reaction mixtures containing test compounds (dissolved in DMSO) and 300 μM DPPH ethanolic solution in 96-well microtiter plates were incubated at 37° C. for 30 min. and absorbance was measured at 515 nm. Percent inhibition by sample treatment was determined by comparison with a DMSO-treated […] control group. IC50 values were determined from percent inhibition by sample. IC50 values denote the concentration of the tested compound that was required to scavenge 50% of the DPPH free radicals.

IMR32 cells = assay: MTT reduction assay, βA peptide-induced toxicity, IMR32 cells; assay type: cell-based, human
Protocol: as §1, §2
(§3) PC12 rat pheochromocytoma and IMR32 human neuroblastoma cells were obtained from the American Type Culture Collection (ATCC). HUVEC normal umbilical human vein endothelial cells were obtained from Clonetics (San Diego, Calif.). Cells were routinely cultured on a tissue culture plate (Corning, N.Y., N.Y.). PC12 cells were grown in high glucose Dulbecco's Modified Eagle Medium (DMEM), 10% horse serum, 5% fetal calf serum, and 1% penicillin/streptomycin. IMR32 cells were grown in 90% DMEM and 10% fetal calf serum with 1% penicillin/streptomycin. HUVEC cells were grown in EGM-2 Bullet Kit (Clonetics, San Diego, Calif.).

[4] = Partition coefficient between water and octane alcohol (log P); assay type: physicochemical
Protocol: According to this example, the ability of the compounds of the invention to pass through the blood brain barrier was measured. The ability of compounds to cross the blood brain barrier is represented by the log of the partition coefficient (P) of a molecule of the invention between water and octane alcohol. […] Accordingly, the octane alcohol fraction contained more than 1000 times as much of the compounds as the water fraction. […] See Hau et al., Regul Toxicol Pharmacol 35, 273 (2002) and Salminen et al., J Pharm Biomed Anal 15, 469 (1997).

PC12 cells = assay: MTT reduction assay, βA peptide-induced toxicity, PC12 cells; assay type: cell-based, rat
Protocol: as §1, §2, §3
PC12 cells were cultured routinely on polystyrene-coated Corning tissue culture plates. […] The 96-well plates were coated with rat tail collagen (Boehringer Mannheim) in order to promote uniform PC12 cell attachment and growth.

HUVEC cells = assay: MTT reduction assay, βA peptide-induced toxicity, HUVEC cells; assay type: cell-based, human; conditions: Table 1, turmeric-derived natural product compounds
Protocol: as §1, §2, §3

[5] = Table 1, turmeric-derived natural product compounds, scavenging 50% of DPPH free radicals
[6] = Table 2, synthesized curcuminoids, DPPH
[7] = Table 1, turmeric-derived natural product compounds
[8] = Table 2, synthesized curcuminoids
[9] = Table 1, turmeric-derived natural product compounds, concentration for 50% cell viability

Row | Antioxidant IC50 [3, 5] | Antioxidant IC50 [3, 6] | logP [4] | Compound | Protection of cells from βA peptide-induced toxicity, in words [1] | Microscopic analysis of βA peptide treated cells (MTT formazan granules in the cytosole) [1] | Protection of primary cortical neuronal cells against βA peptide (1-42) insult [2] | Antioxidant activity (DPPH free radical scavenging), in words [3] | Anti-βA peptide(25-35) ED50 IMR32 (IMR32 cells; [7]) | Anti-βA peptide(1-42) ED50 IMR32 (IMR32 cells; [8]) | Anti-βA peptide(25-35) ED50 IMR32 (IMR32 cells; [8]) | Anti-βA peptide(1-42) ED50 PC12 (PC12 cells; [7]) | Anti-βA peptide(25-35) ED50 PC12 (PC12 cells; [9]) | Anti-βA peptide(1-42) ED50 PC12 (PC12 cells; [8]) | Anti-βA peptide(25-35) ED50 PC12 (PC12 cells; [8]) | Anti-βA peptide(1-42) ED50 HUVEC (HUVEC cells) | Anti-βA peptide(25-35) ED50 HUVEC (HUVEC cells)
1 | >200 µg/mL | 32.6 µg/mL | 3.1 | O=C(C=Cc1ccc(O)cc1)CC(=O)C=Cc1ccc(O)cc1 [Compound 3, 1,7-bis(4-hydroxyphenyl)-1,6-heptadiene-3,5-dione] | protected | effectively protect | protected | significant antioxidant activity | 2.5 µg/mL | 3.5 µg/mL | 3.0 µg/mL | 3.5 µg/mL | 2.0 µg/mL | 4.5 µg/mL | 3.0 µg/mL | 2.0 µg/mL | 2.4 µg/mL
2 | >200 µg/mL | – | – | COc1cc(/C=C/C(=O)COC(=O)/C=C/c2ccc(O)c(OC)c2)ccc1O [Compound 6, 4″-(3′″-methoxy-4′″-hydroxyphenyl)-2″-oxo-3″-enebutanyl 3-(3′-methoxy-4′-hydroxyphenyl)propenoate] | protected | – | protected | – | 1.0 µg/mL | – | – | 2.0 µg/mL | 1.0 µg/mL | – | – | 1.0 µg/mL | 1.5 µg/mL
3 | >200 µg/mL | – | – | O=C(C=C(O)C=Cc1ccc(O)c(O)c1)CCc1ccc(O)cc1 [Compound 5] | protected | – | protected | – | 1.5 µg/mL | – | – | 3.0 µg/mL | 2.5 µg/mL | – | – | 1.5 µg/mL | 2.0 µg/mL
4 | >200 µg/mL | >200 µg/mL | – | O=C(C=Cc1ccc(O)cc1)CC(=O)CCc1ccc(O)cc1 [Compound 4, 1,7-bis(4-hydroxyphenyl)-1-heptene-3,5-dione] | protected; also recorded: best protection | effectively protect | protected | – | 1.2 µg/mL | 2.0 µg/mL | 1.5 µg/mL | 1.0 µg/mL | 0.5 µg/mL | 1.0 µg/mL | 0.5 µg/mL | 1.0 µg/mL | 0.8 µg/mL
5 | 36.2 µg/mL | – | – | COc1cc(C=CC(=O)CC(=O)C=Cc2ccc(O)cc2)ccc1O [Compound 2, 1-(4-hydroxy-3-methoxyphenyl)-7-(4-hydroxyphenyl)-1,6-heptadiene-3,5-dione] | protected | – | protected | strong antioxidant activity | 4.0 µg/mL | – | – | 5.0 µg/mL | 4.0 µg/mL | – | – | 5.0 µg/mL | 4.5 µg/mL
